Entries after “also recorded” stand apart in the source; their conditions may differ. Where no end group is shown, it is not given here.
Key:
[1] = test system: Candida albicans ATCC 10231; experiment: Antimicrobial spread-plate (CFU) killing assay, C. albicans; type: cell-based; conditions: for candidacidal activity (comparison among defensins): 0–2 μM, 90 min at 37 °C, Tris buffer; for effect of high extracellular K+ on candidacidal activity: 50 mM KCl, defensins at NPIC, hLf 5 μM, BM2 0.25 μM, nystatin 50 μM; for non-permeabilizing inhibitory concentration (NPIC), C. albicans: antimicrobial concentration (≤10% viable cells) that permeabilized ≤10% of cells, 10^6 cells/mL, Tris buffer pH 7.4, 90 min at 37 °C, from Figure 1 data, duplicates of three experiments; for effect of piericidin A on candidacidal activity: cells preincubated 15 min at 37 °C with 32 µM piericidin A, then peptides (NPIC) 90 min; for effect of oligomycin A on candidacidal activity: preincubated 15 min at 37 °C with 16 μg/mL oligomycin A, peptides at NPIC
Procedure: To determine whether the above microbicidal concentrations exert a permeabilizing effect on fungal and bacterial membranes, the influx of the fluorescent nucleic acid-binding dye propidium iodide (PI) in cells incubated with the peptides was assessed. In cells, dye uptake reflects membrane permeabilization, as PI itself cannot permeate through an intact phospholipid bilayer. […] To select an antimicrobial but non-permeabilizing concentration of each peptide for further assays, we defined as a non-permeabilizing inhibitory concentration (NPIC) the antimicrobial inhibitory concentration (≤10% viable cells) that permeabilized ≤ 10% of cells incubated (90 min at 37 °C) in buffer solution.
Microbial susceptibility to the peptides was determined in a spread-plate assay as described previously. Briefly, cell suspensions (10^6 cells/mL) in Tris buffer (10 mM Tris-HCl, pH 7.4) were incubated for 90 min at 37 °C with 2-fold serial peptide dilutions. Peptide concentrations ranged from 0 to 2 μM. After incubation, the number of viable cells was determined by plating aliquots (100 μL) in duplicate on plates (SDA for C. albicans, TSA for P. aeruginosa, and M17G agarified medium for L. lactis) that had been dried for 30 min at room temperature in a laminar flow hood. Plates were incubated for 24–48 h at 30 °C (C. albicans and L. lactis) or 24 h at 37 °C (P. aeruginosa). Dilutions yielding 50–200 colonies were counted. Cell viability values, expressed as colony-forming units (CFUs), were calculated relative to the incubation without added peptides and represent the means ± standard deviation (SD) from duplicates of three independent experiments. For inhibition assays, unless otherwise noted, cell suspensions were preincubated (15 min at 37 °C) with the appropriate inhibitor prior to the addition of peptides, but the inhibitor was present throughout the incubation period with the peptide (90 min at 37 °C). Other specific experimental conditions are described as appropriate. In some experiments, the concentrations of human lactoferrin against C. albicans (5 μM), P. aeruginosa (1 μM), and L. lactis (0.065 μM) were used in the control assays. In various viability assays, BM2 peptide (0.25 μM), CCCP (50 μM), colistin (4 μg/mL), nystatin (50 μM), oligomycin A (16 μg/mL), piericidin A (32 μM), and TEA (10 mM) were used.

C. albicans cells = experiment: Oxygen consumption measurement (polarographic), C. albicans; type: cell-based, Candida albicans; conditions: after 30 min; defensins 2 x NPIC, human lactoferrin 20 μM, piericidin A 32 µM; preincubated 15 min at 37 °C; untreated cells 94% ± 2%; means ± SD, three experiments
Procedure: (§1) Oxygen consumption by C. albicans and P. aeruginosa cells was determined by polarographically using a biological oxygen monitor (dual digital-model 20; Rank Brothers Ltd., Cambridge, UK) at 25 °C. The apparatus consisted of a twin water-jacketed closed sample chamber, which enabled a control experiment to be conducted concurrently. The cells were grown to mid-log phase in SDB (C. albicans) or TSB (P. aeruginosa), washed twice in Tris buffer, and resuspended in the same buffer. Cell suspensions (approximately 10^7 cells/mL) were preincubated with defensins (2 x NPIC), human lactoferrin (20 μM), or piericidin A (32 μM) for 15 min at 37 °C. Oxygen consumption was recorded at 5-min intervals for a period of 30 min. Three independent experiments were performed, and the data are means ± SD.

P. aeruginosa cells = experiment: Oxygen consumption measurement (polarographic), P. aeruginosa; type: cell-based, Pseudomonas aeruginosa; conditions: after 30 min; defensins 2 x NPIC, human lactoferrin 20 μM, piericidin A 32 µM; preincubated 15 min at 37 °C; untreated cells 83% ± 2%; means ± SD, three experiments
Procedure: as §1

Pma1p H^+-ATPase = conditions: Table 2; no reference given
Procedure: A whole-cell proton transport assay was used to evaluate the possible inhibition of the fungal Pma1p H^+-ATPase by defensins.
To measure proton pumping from Pma1p H^+-ATPase activity, a glucose-induced acid extrusion assay was performed as previously described with modifications. Briefly, cultures of C. albicans cells were grown to mid-log phase in SDB medium and washed twice in 100 mM Tris-HCl (pH 8.0). The cells were then resuspended in 50 mM KCl and maintained for 18 h at 4 °C to reduce metabolic activity to a minimum (starvation conditions). To determine external acidification, starved cells (approximately 10^7 cells/mL) were incubated for 15 min at 37 °C in the presence or absence of the defensins (2 x NPIC). Cells incubated with 20 µM human lactoferrin or 0.5 µM BM2 peptide were used as positive controls. The initial pH of the cell suspension was adjusted to approximately pH 6.8 with HCl, and glucose (final concentration of 2.5 mM) was immediately added to the cell suspension. The pH of the medium was recorded at 5-min intervals for 20 min using a SevenMulti S50-K pH meter (Mettler-Toledo, Greifensee, Switzerland) with a calibrated electrode (InLab 413, Mettler-Toledo) under constant stirring. Each experiment was repeated three times in an independent manner.

[2] = set-up: method as in 19 sources, ref 24; PMID 3290255; doi:10.1172/JCI113527; 24. Lehrer R.I. Ganz T. Szklarek D. Selsted M.E. Modulation of the in vitro candidacidal activity of human neutrophil defensins by target cell metabolism and divalent cations J. Clin. Invest. 1988 81 || [47]; PMID 11083633; doi:10.1128/AAC.44.12.3310-3316.2000; 47. Edgerton M. Koshlukova S.E. Araujo M.W. Patel R.C. Dong J. Bruenn J.A. Salivary histatin 5 and human neutrophil defensin 1 kill Candida albicans via shared pathways Antimicrob. Agents Chemother. 2 ||| ref 20 = [20]; PMID 17074797; doi:10.1128/AAC.00478-06; 20. Vylkova S. Nayyar N. Li W. Edgerton M. Human beta-defensins kill Candida albicans in an energy-dependent and salt-sensitive manner without causing membrane disruption Antimicrob. Agents Chemother. ||| ref 24, 62 (HNP-1); 62, 63 (HNP-4); 20 (hBD-2); 12, 20 (hBD-3); 34, 35, 64 cidal and 65, 66 static (lactoferrin) ||| ref 26 (HNP-1); 12 (HNP-4); 11 (hBD-2, hBD-3); 43, 67 (lactoferrin) ||| ref 14 (HNP-1); 23 (HNP-4); Yes 11, 13 / No 20 (hBD-2); No 20 / Yes 11 (hBD-3); 31, 34, 42 (lactoferrin) ||| ...; conditions: cited from earlier work; for candidacidal activity on C. albicans cells treated with CCCP: CCCP at pH 7.4; for Cell death inhibitors, intracellular: Azide: 24 (HNP-1); for Cell death inhibitors, intracellular: Azide / Cell death inhibitors, extracellular: Ca^2+ or Mg^2+: 20 (hBD-2, hBD-3); for Cidal/static: 62 (HNP-1), 62, 63 (HNP-4), 12, 20 (hBD-3), 34, 35, 64 cidal and 65, 66 static (lactoferrin); for Cidal/static / Cell death inhibitors, extracellular: K^+ or Na^+: 20 (hBD-2); for Antimicrobial range: Gm+ Gram-positive bacteria, Gm− Gram-negative bacteria, F fungi, V viruses, P protozoa, no reference given; for Membrane permeabilization: ref 14 (HNP-1), 23 (HNP-4), Yes 11, 13 / No 20 (hBD-2), No 20 / Yes 11 (hBD-3), 31, 34, 42 (lactoferrin); for Cell death inhibitors, extracellular: Ca^2+ or Mg^2+: 43 (lactoferrin); for Membrane depolarization: ref 26 (HNP-1), 12 (HNP-4), 11 (hBD-2, hBD-3), 43, 67 (lactoferrin); for Cell death inhibitors, extracellular: K^+ or Na^+: ref 68 (HNP-1), 69 (HNP-4), No 11, 12 / Yes 20 (hBD-3), 31, 36, 43 (lactoferrin)

| Substance | candidacidal activity (comparison among defensins) [1] | effect of high extracellular K+ on candidacidal activity [1] | Cell death inhibitors, extracellular: Tok1p inhibitors (TEA) ([1]; Table 2, no reference given) | non-permeabilizing inhibitory concentration (NPIC), C. albicans [1] [µM] | effect of piericidin A on candidacidal activity [1] | effect of oligomycin A on candidacidal activity [1] | oxygen consumption percentage of C. albicans (C. albicans cells) | O2 consumption of P. aeruginosa (P. aeruginosa cells) | Inhibition of H^+-extrusion (yeast) (Pma1p H^+-ATPase) | candidacidal activity on C. albicans cells treated with CCCP [2] | Cell death inhibitors, intracellular: Azide ([2]; Table 2, 34 (lactoferrin)) | Cidal/static ([2]; Table 2) | Antimicrobial range ([2]; Table 2) | Membrane permeabilization ([2]; Table 2) | Cell death inhibitors, extracellular: Ca^2+ or Mg^2+ ([2]; Table 2, ref 24 (HNP-1)) | Membrane depolarization ([2]; Table 2) | Cell death inhibitors, extracellular: K^+ or Na^+ ([2]; Table 2) | further results |
| --- | --- | --- | --- | --- | --- | --- | --- | --- | --- | --- | --- | --- | --- | --- | --- | --- | --- | --- |
| HNP-1: human α-defensin, UniProtKB P59665, 30 amino acids, three disulfide bonds; purchased from PeptaNova | highest candidacidal activity | significantly protected | Yes | 0.25 | significantly less susceptible | significantly (p < 0.001) less susceptible | 87% ± 4% | 72% ± 2% | Yes | protected | Yes | Cidal | Gm +,Gm −,F,V,P | Yes | Yes (Ca^2+); also recorded: No (Mg^2+) | Yes | Yes | Cell death inhibitors, intracellular: Oligomycin A ([1]; Table 2, no reference given): Yes; Cell death inhibitors, intracellular: Piericidin A ([1]; Table 2, no reference given, tested on C. albicans and P. aeruginosa in this study): Yes; ATP-efflux ([2]; Table 2): Yes; Cell death inhibitors, intracellular: Antimycin A (+SHAM) ([2]; Table 2): Yes; Cell death inhibitors, intracellular: CCCP or DNP ([2]; Table 2, ref 24 (HNP-1), 34 (lactoferrin)): Yes; Cell death inhibitors, extracellular: Anoxia ([2]; Table 2, ref 24 (HNP-1), 34, 35 (lactoferrin)): Yes; ATP increment ([2]; Table 2, ref 47 (HNP-1), 35 (lactoferrin)): Yes |
| hBD-3: human β-defensin, UniProtKB Q5U7J2, 45 amino acids; purchased from PeptaNova (GIINTLQKYYCRVRGGRCAVLSCLPKEEQIGKCSTRGRKCCRRKK; Beta-defensin 103; UniProt P81534 23-67, looked up) | highest candidacidal activity | significantly protected | Yes | 0.125 | significantly less susceptible | significantly (p < 0.001) less susceptible | 79% ± 4% | 82% ± 4% | Yes | protected | Yes | Cidal | Gm +,Gm −, F,V,P | – | No | Yes | No and Yes | – |
| HNP-4: human α-defensin, UniProtKB P12838, 33 amino acids; purchased from PeptaNova (VCSCRLVFCRRTELRVGNCLIGGVSFTYCCTRV; ends and bridges not checked; cysteine pairing not given here; UniProt P12838 64-96, looked up) | – | significantly protected | Yes [69] ND Yes ND ND ND ND ND ND | 0.25 | significantly less susceptible | significantly (p < 0.001) less susceptible | 81% ± 3% | 75% ± 2% | Yes | – | – | Cidal | Gm +,Gm −,F,V | Yes | – | Yes | – | – |
